The values that follow come from publication PMC9607537, “Understanding the Antilymphoma Activity of Annona macroprophyllata Donn and Its Acyclic Terpenoids: In Vivo, In Vitro, and In Silico Studies” (Molecules, 2022).

The test system of one data set is Balb/c mice. The experiment in a line: in vivo. The conditions noted are these: for TI Female (therapeutic index, LD50/ED50) / TI Male (therapeutic index, LD50/ED50): LD50 acute oral toxicity / ED50 antilymphoma activity; for TI Female (therapeutic index, LD50/ED50): female mice; for TI Male (therapeutic index, LD50/ED50): male mice; for OECD acute systemic toxicity category: acute oral toxicity, OECD guideline 423; for OECD acute systemic toxicity category / Mortality in acute oral toxicity test: mice; for Mortality in acute oral toxicity test: until end of study (14 days). The procedure:
(§1) Twenty-four female mice of the Balb/c strain were randomly used to form 8 groups (n = 3). […] The control group was administered with only the vehicle (Tween 80 at 2% in water) and for the compounds, doses of 500 and 1000 mg kg^−1 were administered. […] Subsequently, we sacrificed the animals and extracted the organs (stomach, intestines, spleen, liver, and kidneys) were extracted, reporting the pathological changes, if any.

A short description of another data set: in vivo. To be noted: female, Balb/c, mouse, in vivo, po. How it is done:
as §1

Data set [1] concerns lymph node growth in mice inoculated with U-937 cells. The data set is described as follows: Antilymphoma activity in Balb/c mice inoculated with U-937 cells. The class given is in vivo. The conditions noted are these: oral, 9 days treatment, mean ± SEM, n = 6; for ED50 Female (inhibition of lymph node growth): female Balb/c mice inoculated with U-937 cells; for ED50 Male (inhibition of lymph node growth): male Balb/c mice inoculated with U-937 cells. The text has this:
We induced lymphoma following the method of Calzada et al.. We randomly formed fifteen groups of male mice and of female mice (n = 6). […] After cell inoculation, we observed all animals for the following 28 days, after which we orally administered treatments for 9 days. Over the following 28 days, we recorded the weight and survival of the animals. Finally, at day 65, we sacrificed the animals and removed and weighed the left and right axillary and inguinal lymph nodes.

Another data set concerns Artemia salina larvae. The data set is described as follows: Brine shrimp lethality (BSL) test. The data set is classed as in vivo. To be noted: mortality at 24 h, mean ± SEM. The procedure:
To obtain the LD50 of the thirteen compounds isolated by TLC, we performed the brine shrimp assay according to the procedure described by Meyer et al.. We exposed groups of 10 shrimp in brine to concentrations of 0.5, 1, 5, 10 µg mL^−1 of each product (P1-P13). The concentrations were reached by dissolving the compounds in 2 mL of ethanol, subsequently transferring to different flasks. After evaporating the solvent at room temperature, we introduced the BS and adjusted the volume with artificial seawater to 5 mL. We performed this test in triplicate for each compound.

The next data set deals with U-937 cells. The experiment in a line: cells. To be noted: read-out: CC50 (median cytotoxic concentration causing 50% cell death). How it is done:
The cell line U-937 was acquired (ATCC: CRL 1593.2, Middlesex, UK) and characterized as a type of diffuse monocytic NHL; for its propagation two million cells were used and seeded in RPMI 1640 medium (Roswell Park Memorial Institute) supplemented with 2 mM L-glutamine, 10% v/v fetal bovine serum (Thermo), 100 mM 1% sodium pyruvate, and 1% penicillin/streptomycin. The cells were kept in an atmosphere with a concentration of carbon dioxide (CO2) at 5% at 37 °C.
We evaluated the in vitro cytotoxic activity using the cell proliferation reagent WST-1, based on the cleavage of tetrazolium salts to formazan by the enzyme mitochondrial dehydrogenase. For cell proliferation, the Quick Cell Proliferation Kit II (Abcam, Cambridge, UK, Cat. No. ab65475) was used, 96-well plates were used and 2 × 10^5 cells per well were seeded in a final volume of 100 µL/well of culture medium. […] After 24 h, viability was assessed by the addition of 10 µL of WST-1 reagent and the cells were further incubated for 2 h at 37 °C and 5% CO2. Finally, the absorbance at 440 nm was measured using a microplate reader.

The subject of the next data set is U-937 cell line. Also noted: method as in PMID 34638856. To be noted: viability analysis by flow cytometry; cited from earlier work. In general terms: A flow cytometer gives signals particle by particle.

Like-named read-outs stand apart in the source and are kept apart here.

For the compound `CC(=O)OC/C=C(\C)CC/C=C(\C)CCC=C(C)C` [FA, [(E,E)-3,7,11-trimethyldodeca-2,6,10-trienyl] acetate], in the data set on Balb/c mice, the “TI Female (therapeutic index, LD50/ED50)” value was 169.77; the “TI Male (therapeutic index, LD50/ED50)” value worked out at 196.46; the “OECD acute systemic toxicity category” value was “category 4 (category 4, low risk > 300 and ≤2000 mg/kg)”; the “TI (therapeutic index) in both sexes” value is over 100. In addition, the “Mortality in acute oral toxicity test” value with Balb/c mice (single oral dose) is given as “did not cause mortality”. In the data set “in vivo”, the LD50 (usually the dose at which mortality reaches 50%) at 14 days was over 1000 mg/kg. Further, in data set [1], the “ED50 Female (inhibition of lymph node growth)” value was determined as 5.89 ± 0.39 mg/kg and the “ED50 Male (inhibition of lymph node growth)” value stood at 5.09 ± 0.66 mg/kg. The “LD50 (median lethal dose causing 50% of A. salina death)” value in the data set with Artemia salina larvae (n = 3, listed as AF) was 5.82 ± 0.58 µg/mL. Also, the “LD50 (median lethal dose causing 50% of A. salina death)” value in the data set with Artemia salina larvae (n = 3, listed as FA (P10)) turned out to be 5.82 ± 0.58 µg/mL. For the same compound, in the data set with U-937 cells (Homo sapiens, U-937, 24 h), the CC50 was determined as 275 ± 80 µM.

`CC(C)=CCC/C(C)=C/CC/C(C)=C/CC/C(C)=C/CO` [Gg, (2E,6E,10E)-3,7,11,15-tetramethylhexadeca-2,6,10,14-tetraen-1-ol]: in the data set on Balb/c mice, the “TI Female (therapeutic index, LD50/ED50)” value worked out at 138.5; the “OECD acute systemic toxicity category” value is “category 4 (category 4, low risk > 300 and ≤2000 mg/kg)”; the “TI (therapeutic index) in both sexes” value is reported as over 100. Also, the “Mortality in acute oral toxicity test” value in the data set with Balb/c mice (single oral dose) was “caused death in the animals”. In “in vivo”, this compound had an LD50 at 14 days of 742.17 ± 0.34 mg/kg. Besides, in data set [1], the “ED50 Female (inhibition of lymph node growth)” value stood at 7.22 ± 0.51 mg/kg and the “ED50 Male (inhibition of lymph node growth)” value came to 6.98 ± 0.57 mg/kg. Also, the “LD50 (median lethal dose causing 50% of A. salina death)” value in the data set on Artemia salina larvae (n = 3) came out at 1.41 ± 0.42 µg/mL. Further, the CC50 in the data set with U-937 cells (Homo sapiens, U-937, 24 h) was 395 ± 5 µM.

In “in vivo”, `CN(Cc1cnc2nc(N)nc(N)c2n1)c1ccc(C(=O)N[C@@H](CCC(=O)O)C(=O)O)cc1` [MTX, methotrexate, reference compound] came in with a median lethal dose (LD50) at 14 days of 335 ± 0.39 mg/kg. Moreover, in data set [1], the “ED50 Female (inhibition of lymph node growth)” value was 1.31 ± 0.34 mg/kg and the “ED50 Male (inhibition of lymph node growth)” value was found to be 0.99 ± 0.024 mg/kg. Also, in the data set on U-937 cell line, the CC50 is 500 nM. For the same compound, the CC50 in the data set on U-937 cells (Homo sapiens, U-937, 24 h) came out at 243 ± 7 µM.

On to “(2E,7R,11R)-3,7,11,15-tetramethylhexadec-2-en-1-ol [PT]”, for which, in the data set on Balb/c mice, the “TI Female (therapeutic index, LD50/ED50)” value amounted to 149.03; the “TI Male (therapeutic index, LD50/ED50)” value is 171.52; the “OECD acute systemic toxicity category” value was “category 4 (category 4, low risk > 300 and ≤2000 mg/kg)”; the “TI (therapeutic index) in both sexes” value was over 100. The “LD50 (median lethal dose, acute oral toxicity)” value in the data set with Balb/c mice (female Balb/c mice, single oral dose, 14 days observation, n = 3) is recorded as over 1000 mg/kg. Also, the “Mortality in acute oral toxicity test” value with Balb/c mice (single oral dose) was “did not cause mortality”. Also, in data set [1], the “ED50 Female (inhibition of lymph node growth)” value was found to be 6.71 ± 0.31 mg/kg and the “ED50 Male (inhibition of lymph node growth)” value turned out to be 5.83 ± 0.50 mg/kg. The “LD50 (median lethal dose causing 50% of A. salina death)” value in the data set with Artemia salina larvae (n = 3) was determined as 3.03 ± 0.33 µg/mL. The CC50 in the data set on U-937 cells (U-937 cells, 24 h exposure, WST-1, mean ± SEM, n = 3) was determined as 296 ± 70 µM.
